These molecules were tested against T1, LPL (native bovine milk protein) inactivated by ANGPTL4 (Bos taurus, UniProt P11151) (assay: LPL ANGPTL4 protection assay (LPL fluorescence assay, resorufin butyrate substrate)). Conditions: LPL activation activity, LPL 2.5 nM, ANGPTL4 20 nM.
T1 construct: from tissue; host or cells: bovine milk (LPL); E. coli (GST-ANGPTL4)
T1 sequence (P11151 29-478): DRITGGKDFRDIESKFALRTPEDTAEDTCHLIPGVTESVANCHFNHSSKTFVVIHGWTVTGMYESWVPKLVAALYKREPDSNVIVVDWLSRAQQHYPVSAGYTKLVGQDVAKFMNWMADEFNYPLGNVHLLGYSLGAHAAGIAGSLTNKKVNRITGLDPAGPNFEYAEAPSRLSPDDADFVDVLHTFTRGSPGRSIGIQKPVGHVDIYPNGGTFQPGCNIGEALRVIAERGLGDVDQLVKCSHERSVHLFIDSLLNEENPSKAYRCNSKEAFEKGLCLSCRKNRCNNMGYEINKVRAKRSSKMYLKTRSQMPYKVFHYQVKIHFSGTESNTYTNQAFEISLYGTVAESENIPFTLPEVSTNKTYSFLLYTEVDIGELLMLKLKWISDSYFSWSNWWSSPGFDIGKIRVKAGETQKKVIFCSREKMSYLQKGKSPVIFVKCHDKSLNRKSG
Assay type: biochemical
Procedure: LPL is inactivated by angiopoietin-like 4 (ANGPTL4). Compounds of the present disclosure were for activity using the following protection assay. Briefly, the assay was performed in a black opaque 96-well microtiter plate with final volume of 100 μL using a buffer consisting of 50 mM HEPES (pH 7.2), 150 mM NaCl and 0.03% Triton X-100. Compounds were prepared as 10 mM stocks in DMSO, with subsequent serial dilutions performed in DMSO. Two microliters of test compounds were added to the microtiter plate, followed by 49-PL of LPL (native bovine milk protein affinity purified using heparin-affinity chromatography) in assay buffer. The plate contents were mixed using an orbital shaker and allowed to incubate for 5 minutes at room temperature. The enzymatic assay was initiated by the addition of a mixture of 49 μL of 50 μM resorufin butyrate (Santa Cruz #sc-208302; prepared from a 10 mM DMSO stock) and ANGPTL4 (N-terminal GST construct consisting of residues 26-164 expressed in E. coli) in assay buffer. The final concentrations of LPL and ANGPTL4 were 2.5 nM and 20 nM, respectively. The assay was allowed to proceed at 30° C. for 25 minutes with kinetic monitoring (Ex560/Em585) followed by an endpoint reading which was used for analysis.
Data was analyzed in Graphpad Prism (version 6.0, GraphPad Software, Inc., San Diego, CA) using a variable slope four parameter fit of the equation:
Y=Bottom+(Top-Bottom)/(1+10^((Log EC50−X)*HillSlope)),
where X is the concentration of test compound, Y corresponds to the amount of product expressed in relative fluorescence units, and Top and Bottom refer to the plateaus of the curve. Percent activation (protection) of test compound was calculated relative to zero effect wells (ZEW; LPL, ANGPTL4 and substrate) and maximum effect wells (MEW; LPL plus substrate): ((test well−ZEW)/(MEW−ZEW))*100.

Q: For `Cc1ccc(NC(=O)c2cc(-n3cc4ccc(-c5nnn[nH]5)cc4n3)ccc2N2CCCCC2)cc1` [Compound 167, 5-(6-(1H-tetrazol-5-yl)-2H-indazol-2-yl)-2-(piperidin-1-yl)-N-(p-tolyl)benzamide], which EC50 is on record?
A: Its EC50 is 9.41 µM.

Q: How did the EC50 turn out when `Cn1nc(C(=O)Nc2cc(C(=O)Nc3cc(-c4nnn[nH]4)ccc3F)ccc2N2CCCCC2)c2ccccc21` [Compound 166, N-(5-((2-fluoro-5-(1H-tetrazol-5-yl)phenyl)carbamoyl)-2-(piperidin-1-yl)phenyl)-1-methyl-1H-indazole-3-carboxamide] was run?
A: The EC50 was 8.1 µM.

Q: With `Cc1ccc(NC(=O)c2cc(NCc3ccc(-c4nsc(=O)[nH]4)cc3)ccc2N2CCCCC2)cc1` [Compound 168, N-(4-methylphenyl)-5-({[4-(5-oxo-4,5-dihydro-1,2,4-thiadiazol-3-yl)phenyl]methyl}amino)-2-(piperidin-1-yl)benzamide] as the molecule, how does the EC50 read?
A: Its EC50 is 14.9 µM.

Q: With `O=C(O)Cc1ccccc1NC(=O)c1ccc(N2CCCCC2)c(NC(=O)c2cc3n(n2)CCCC3)c1` [Compound 161, 2-(2-(4-(piperidin-1-yl)-3-(4,5,6,7-tetrahydropyrazolo[1,5-a]pyridine-2-carboxamido)benzamido)phenyl)acetic acid] as the molecule, how does the EC50 read?
A: Its EC50 is 3.2 µM.

Q: How did the EC50 turn out when `CC(C)n1nc(C(=O)Nc2cc(C(=O)Nc3ccc(F)cc3CC(=O)O)ccc2N2CCCCC2)c2ccccc21` [Compound 162, 2-(5-fluoro-2-(3-(1-isopropyl-1H-indazole-3-carboxamido)-4-(piperidin-1-yl)benzamido)phenyl)acetic acid] was run?
A: Its EC50 is 3.25 µM.

Q: Which EC50 does the source give for `O=C(Nc1ccc(-c2nnn[nH]2)cc1)c1ccc(N2CCCCC2)c(NC(=O)c2nn(CC(F)(F)F)c3ccccc23)c1` [Compound 164, N-(5-((4-(1H-tetrazol-5-yl)phenyl)carbamoyl)-2-(piperidin-1-yl)phenyl)-1-(2,2,2-trifluoroethyl)-1H-indazole-3-carboxamide] here?
A: Its EC50 is 5.16 µM.

Q: Which EC50 does the source give for `O=C(O)Cc1cc(F)ccc1NC(=O)c1ccc(N2CCCCC2)c(NC(=O)c2nn(Cc3ccccc3)c3ccccc23)c1` [Compound 159, 2-(2-(3-(1-benzyl-1H-indazole-3-carboxamido)-4-(piperidin-1-yl)benzamido)-5-fluorophenyl)acetic acid] here?
A: Its EC50 is 0.85 µM.

Q: Which EC50 does the source give for `Cn1nc(C(=O)Nc2cc(C(=O)Nc3ccccc3CC(=O)O)ccc2N2CCCCC2)cc1-c1ccccc1` [Compound 163, 2-(2-(3-(1-methyl-5-phenyl-1H-pyrazole-3-carboxamido)-4-(piperidin-1-yl)benzamido)phenyl)acetic acid] here?
A: Its EC50 is 4.13 µM.

Q: How did the EC50 turn out when `CCn1nc(C(=O)Nc2cc(C(=O)Nc3ccc(F)cc3CC(=O)O)ccc2N2CCCCC2)c2ccccc21` [Compound 160, 2-(2-(3-(1-ethyl-1H-indazole-3-carboxamido)-4-(piperidin-1-yl)benzamido)-5-fluorophenyl)acetic acid] was run?
A: Its EC50 is 1.66 µM.

Q: Which EC50 does the source give for `Cc1ccc(NC(=O)c2cc(NCc3cc(-c4nnn[nH]4)ccc3F)ccc2N2CCCCC2)cc1` [Compound 169, 5-((2-fluoro-5-(1H-tetrazol-5-yl)benzyl)amino)-2-(piperidin-1-yl)-N-(p-tolyl)benzamide] here?
A: Its EC50 is 6.38 µM.

Q: `Cn1nc(C(=O)Nc2cc(C(=O)Nc3ccc(-c4nnn[nH]4)cc3)ccc2N2CCCCC2)c2ccc(F)cc21` [Compound 165, N-(5-((4-(1H-tetrazol-5-yl)phenyl)carbamoyl)-2-(piperidin-1-yl)phenyl)-6-fluoro-1-methyl-1H-indazole-3-carboxamide] was tested. Which EC50 did it give?
A: Its EC50 is 7.99 µM.

These molecules were tested against T2, LPL:sGPIHBPI complex (Homo sapiens, UniProt P06858) (assay: VLDL assay (LPL:sGPIHBP1 pre-incubated with ANGPTL4, VLDL substrate, Amplex Red readout)). Conditions: read-out: VLDL qAC50.
T2 sequence (P06858 28-475): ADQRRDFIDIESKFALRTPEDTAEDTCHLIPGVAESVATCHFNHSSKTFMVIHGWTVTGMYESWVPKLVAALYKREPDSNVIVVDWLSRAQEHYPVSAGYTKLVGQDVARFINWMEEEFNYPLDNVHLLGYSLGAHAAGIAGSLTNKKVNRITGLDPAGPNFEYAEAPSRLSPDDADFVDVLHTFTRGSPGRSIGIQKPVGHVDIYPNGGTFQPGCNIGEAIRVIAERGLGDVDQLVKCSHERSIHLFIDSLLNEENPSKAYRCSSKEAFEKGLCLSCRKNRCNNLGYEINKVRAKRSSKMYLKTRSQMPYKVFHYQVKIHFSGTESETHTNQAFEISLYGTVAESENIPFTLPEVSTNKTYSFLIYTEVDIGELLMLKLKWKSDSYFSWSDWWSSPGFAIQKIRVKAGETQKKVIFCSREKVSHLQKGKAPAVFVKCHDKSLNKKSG
T2 sequence (Q8IV16 21-151 partner limits assumed): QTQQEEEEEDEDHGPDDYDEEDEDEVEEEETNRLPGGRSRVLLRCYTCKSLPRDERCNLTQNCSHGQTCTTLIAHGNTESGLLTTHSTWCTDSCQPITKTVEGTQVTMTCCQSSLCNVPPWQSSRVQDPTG
Assay type: biochemical
Procedure: The assay was performed in black I536-well plates using purified proteins. To identify compounds that stimulate LPL activity either by directly activating LPL or by inhibiting the antagonist ANGPTL4, the LPL:sGPIHBPI complex was pre-incubated with ANGPTL4 to decrease LPL activity by 80%. After a 60 min pre-incubation, the coupled enzyme system supplemented with Amplex Red reagent was added. The enzymatic reaction was started by adding the VLDL substrate. 120 min after VLDL addition, the reaction was stopped using SDS and the fluorescence intensity was measured.
40 or 45 nl of compound solution in 100% DMSO were placed in test plate. Then LPL:sGPIHBPI was added to all wells (diluted in assay buffer to 80 nM; 1 μl/well). This was followed by an addition of ANGPTL4 to compounds and neutral controls (diluted in assay buffer to 84 nM; 1 μl/well). The assay buffer was added to stimulator control (1 μl/well). Then the plates were centrifuged and pre-incubated 60 min at RT. A NEFA (1:2 diluted in PBS) supplemented with Amplex Red (40 μM was further added to all wells (1 μl/well). The reaction was then started by adding substrate to all wells (diluted in VLDL buffer to 16 Vg/ml, 1 μl/well). The plates were further centrifuged (800 rpm for 1 my) and incubated 120 m at RT (=reaction time). The reaction was then by adding SDS to all wells (diluted in water to 2.5%, 2 μl/well) and further incubated 30 mi at RT. The fluorescence intensity (ex 540 nm/em 590 nm) was measured on a Pherastar (BMG) using 20 flashes.

Q: For `O=C(O)Cc1cc(F)ccc1NC(=O)c1ccc(N2CCCOCC2)c(NC(=O)c2nn(CC(F)(F)F)c3ccccc23)c1` [Example 63], which EC50 is on record?
A: Its EC50 is 10 µM.

Q: How did the EC50 turn out when `O=C(O)Cc1cc(F)ccc1NC(=O)c1ccc(N2CCCCC2)c(NC(=O)c2nn(CCN3CCOCC3)c3ccccc23)c1` [Compound 120, 2-(5-fluoro-2-(3-(1-(2-morpholinoethyl)-1H-indazole-3-carboxamido)-4-(piperidin-1-yl)benzamido)phenyl)acetic acid] was run?
A: Its EC50 is > 25 µM.

Q: With `CC1CCCN(c2ccc(C(=O)Nc3ccc(F)cc3CC(=O)O)cc2NC(=O)c2nn(CC(F)(F)F)c3ccccc23)C1` (stereo not drawn) [Example 73] as the molecule, how does the EC50 read?
A: The EC50 was 2.2 µM.

Q: `Cc1nc(Cn2nc(C(=O)Nc3cc(C(=O)Nc4ccc(F)cc4CC(=O)O)ccc3N3CCCCC3)c3ccccc32)no1` [Compound 125, 2-(5-fluoro-2-(3-(1-((5-methyl-1,2,4-oxadiazol-3-yl)methyl)-1H-indazole-3-carboxamido)-4-(piperidin-1-yl)benzamido)phenyl)acetic acid] was tested. Which EC50 did it give?
A: Its EC50 is 6.4 µM.

Q: With `CC1CCN(c2ccc(C(=O)Nc3ccc(F)cc3CC(=O)O)cc2NC(=O)c2nn(CC(F)(F)F)c3ccccc23)CC1` [Example 64] as the molecule, how does the EC50 read?
A: The EC50 was 1.2 µM.

Q: For `O=C(O)Cc1cc(F)ccc1NC(=O)c1ccc(N2CCCCC2)c(NC(=O)c2nn(CC3COCCO3)c3ccccc23)c1` (stereo not drawn) [Compound 132, 2-(2-(3-(1-((1,4-dioxan-2-yl)methyl)-1H-indazole-3-carboxamido)-4-(piperidin-1-yl)benzamido)-5-fluorophenyl)acetic acid], which EC50 is on record?
A: The EC50 was 7.4 µM.

Q: How did the EC50 turn out when `O=C(O)Cc1cccc(Cl)c1NC(=O)c1ccc(N2CCCCC2)c(NC(=O)c2nn(CC(F)(F)F)c3ccccc23)c1` [Compound 25, 2-(3-chloro-2-(4-(piperidin-1-yl)-3-(1-(2,2,2-trifluoroethyl)-1H-indazole-3-carboxamido)benzamido)phenyl) acetic acid] was run?
A: Its EC50 is 5 µM.

Q: How did the EC50 turn out when `CCC1CCCCN1c1ccc(C(=O)Nc2ccc(F)cc2CC(=O)O)cc1NC(=O)c1nn(CC(F)(F)F)c2ccccc12` (stereo not drawn) [Example 72] was run?
A: The EC50 was 2.7 µM.

Q: `O=C(O)Cc1cc(F)ccc1NC(=O)c1ccc(N2CCCCC2)c(NC(=O)Nc2nn(CC(F)(F)F)c3ccccc23)c1` [Compound 129, 2-(5-fluoro-2-(4-(piperidin-1-yl)-3-(3-(1-(2,2,2-trifluoroethyl)-1H-indazol-3-yl)ureido)benzamido)phenyl)acetic acid] was tested. Which EC50 did it give?
A: Its EC50 is 3.3 µM.

Q: How did the EC50 turn out when `O=C(O)Cc1cc(F)ccc1NC(=O)c1ccc(N2CCCCC2)c(NC(=O)c2nn(CC(F)(F)F)c3ccccc23)n1` [Compound 45, 2-(5-fluoro-2-(5-(piperidin-1-yl)-6-(1-(2,2,2-trifluoroethyl)-1H-indazole-3-carboxamido)picolinamido)phenyl)acetic acid] was run?
A: The EC50 was > 25 µM.

— patent US20250092014A1, “COMPOUNDS AND METHODS OF ACTIVATING LIPOPROTEIN LIPASE” (Metrea Biosciences, Inc., priority 2021, published 2025)
